Marks after values point to notes of the source that are not given here.
What was measured:
bovine fibroblast cells [1] = assay: Collection of M phase cells: synchronization, shaking treatment and selection by size with 20 μm pipette (Example 1)
Text: As the bovine fibroblast cells (Japanese black), the cells from a fetal at Day 54 from conception were used. The recovered fetus was aseptically minced and digested with trypsin. The cell suspension was recovered and cultured in Dulbecco's modified eagle medium (D-MEM, Gibco BRL, Cat No. 11885-084, MD, USA), followed by storing frozen cells (one passage). For experiments, the frozen stored cells seeded on a 10 cm plastic petri dish (Falcon, 353003) were once subcultured, and the cells grown to logarithmic growth phase were used.
For synchronization to metaphase, 10% FBS-containing minimum essential medium (S-MEM, Cat. No.11385-036,Gibco BRL, MD, USA) supplemented with 2-methoxyestadiol (2-MeOE2, Cat No.M6383, Sigma chemical Co., MO, USA) to a concentration of 0.5 μM or 1 μM was used.
Each preparation was stained with Hoechst 33342 (Sigma Chemical Co, MO, USA) and observed with a fluorescence microscope. Only the cells having clear boundary of cell membrane were used for judgment. In Comparative Examples 1 and 2, the cells in prophase, metaphase, anaphase and telophase of cell cycle were classified into the cells in mitotic phase (M phase). The cells containing only one nucleus covered with a nuclear membrane were judged as the cells in interphase. The cells in which the nucleus in the cytoplasm is fragmented, the cells containing no nucleus in the cytoplasm, and the cells having a lot of nuclei in the cytoplasm were judged as abnormal cells. In Examples 1 and 2, M phase cells were further classified into normal metaphase cells (the one nucleus in metaphase is located in the cytoplasm) and abnormal metaphase cells (the two or more nuclei in metaphase are located in the cytoplasm). The cells in interphase were classified into normal interphase cells (only one nucleus having nuclear membrane exists in the cytoplasm) and abnormal interphase cells (two or more nuclei having nuclear membrane exist in the cytoplasm, or the nucleus in the cytoplasm is fragmented).
D-MEM medium in a petri dish containing cells in logarithmic growth phase was replaced with 5 ml of S-MEM medium containing 1.0 μM 2-MeOE2, and the culturing was continued. Thirty minutes later, the shaking treatment was carried out as in Comparative Example 1 and the culture supernatant was discarded. To the petri dish after discarding the culture supernatant, fresh S-MEM medium containing 1 μM 2-MeOE2 was added and the culture was continued for another 30 minutes. Thirty minutes later, the shaking treatment was carried out as described above and the culture supernatant was centrifuged (1000 rpm, 5 minutes) to recover the cells (second time recovered cells). An aliquot of the collected cells was transferred to D-MEM medium containing 1 μM 2-MeOE2, and substantially spherical cells having clear boundary of cell membrane and having a diameter slightly larger than 20 μm were selected within 30 minutes using a glass pipette (COOK, Cat.No.PBBP-2000) having an inner diameter of 20 μm. The selected cells were immediately transferred to phosphate buffered saline (D-PBS) containing Hoechst33342 and 1 μM 2-MeOE2, and cell cycles were determined under an inverted fluorescence microscope.

bovine fibroblast cells [2] = assay: Combination of metaphase-synchronizing agent and shaking treatment: cell cycles of cells recovered from culture supernatant (Comparative Example 2); format: cell-based
Experimental: Fibroblast Cells and Observation Thereof Fetal fibroblast cells were recovered by collecting the medium containing the cells in a 15 ml test tube and by centrifuging the medium (180g, 5 minutes). After the centrifugation, the cell precipitate was resuspended with a small amount of the medium, and the resulting cell suspension was uniformly smeared on a slide glass. The slide glass was air-dried at room temperature and the cells were fixed (99.9% ethanol, 5 minutes) to prepare preparations.
Thirty minutes later, the whole culture supernatant was recovered after subjecting the petri dish to shaking treatment, or without the shaking treatment. The shaking treatment was carried out by intimately attaching the bottom plate of the plastic petri dish to a mixer (IKEDA RIKA, D-10) and driving the mixer to circularly move the petri dish for 1 minute (3000 rpm, diameter of circular movement: 0.3 cm). […] The cell pellet was resuspended in a small amount of the medium and the obtained cell suspension was smeared on a slide glass.
How the cell cycles of the cells recovered from the culture supernatant change by combination of the metaphase-synchronizing agent (2-MeOE2) and the shaking treatment was investigated with successively repeating the step of shaking treatment and the subsequent recovery 3 times. […] Thirty minutes later, shaking treatment was performed as in the first time and the second time, and the culture supernatant was centrifuged to recover the cells (third time recovered cells). The cells obtained using different concentrations of the metaphase-synchronizing agent and obtained in different times of recovery were respectively resuspended in a small amount of the medium and smear preparations were prepared. The smear preparations were air-dried, fixed, stained and observed.

cells = conditions: nocodazole treatment, cells collected by the shaking method; cited from earlier work
[3] = 1 μM 2-MeOE2, second culture, shaking treatment, diameter not less than about 20 μm
[4] = 1 μM 2-MeOE2, second time recovered cells, 20 μm pipette, of 249 observed cells
[5] = 1 μM 2-MeOE2, second time recovered cells, selected with 20 μm pipette
[6] = 0.5 μM 2-MeOE2, first time recovered cells
[7] = 0.5 μM 2-MeOE2, first time recovered cells, of 2046 observed cells
[8] = 0.5 μM 2-MeOE2, second time recovered cells
[9] = 0.5 μM 2-MeOE2, second time recovered cells, of 2078 observed cells
[10] = 0.5 μM 2-MeOE2, third time recovered cells
[11] = 0.5 μM 2-MeOE2, third time recovered cells, of 2052 observed cells
[12] = 1 μM 2-MeOE2, first time recovered cells
[13] = 1 μM 2-MeOE2, first time recovered cells, of 2033 observed cells
[14] = 1 μM 2-MeOE2, second time recovered cells
[15] = 1 μM 2-MeOE2, second time recovered cells, of 2075 observed cells
[16] = 1 μM 2-MeOE2, third time recovered cells
[17] = 1 μM 2-MeOE2, third time recovered cells, of 2126 observed cells

## COc1cc2c(cc1O)CC[C@@H]1[C@@H]2CC[C@]2(C)[C@@H](O)CC[C@@H]12 [2-MeOE2, 2-methoxyestradiol]
Bovine fibroblast cells [1]; [3]
  M phase cells among the collected cells: 99.1%
  normal metaphase cells among the collected cells (243/246): 98.8%
Bovine fibroblast cells [1]; [4]
  Number of Abnormal Interphase Cells: 0
  Number of Abnormal Metaphase Cells: 3
  Number of Normal Interphase Cells: 3
  Number of Normal Metaphase Cells: 243
Bovine fibroblast cells [1]; [5]
  Number of Abnormal Interphase Cells (mean ± SD(%)): (0.0 ± 0.0) %
  Number of Abnormal Metaphase Cells (mean ± SD(%)): (1.3 ± 2.5) %
  Number of Normal Interphase Cells (mean ± SD(%)): (1.0 ± 1.1) %
  Number of Normal Metaphase Cells (mean ± SD(%)): (97.8% ± 2.1)
Bovine fibroblast cells [2]; 0.5 μM 2-MeOE2, 30 min, first time recovered cells, shaking treatment
  Number of Metaphase Cells (mean ± SD(%)): (28.8 ± 3.0^a) %
Bovine fibroblast cells [2]; [6]
  Number of Abnormal Cells (mean ± SD(%)): (15.4 ± 5.8^a) %
  Number of Normal Interphase Cells (mean ± SD(%)): (55.8 ± 3.6^a) %
Bovine fibroblast cells [2]; [7]
  Number of Abnormal Cells: 313
  Number of Metaphase Cells: 591
  Number of Normal Interphase Cells: 1142
Bovine fibroblast cells [2]; [8]
  Number of Abnormal Cells (mean ± SD(%)): (6.6 ± 4.2^bc) %
  Number of Metaphase Cells (mean ± SD(%)): (45.2 ± 7.9^bc) %
Bovine fibroblast cells [2]; [9]
  Number of Abnormal Cells: 135
  Number of Metaphase Cells: 940
  Number of Normal Interphase Cells: 1003
Bovine fibroblast cells [2]; [10]
  Number of Abnormal Cells (mean ± SD(%)): (6.4 ± 3.9^c) %
  Number of Metaphase Cells (mean ± SD(%)): (46.0 ± 7.5^c) %
  Number of Normal Interphase Cells (mean ± SD(%)): (47.6 ± 4.7^c) %
Bovine fibroblast cells [2]; [11]
  Number of Abnormal Cells: 130
  Number of Metaphase Cells: 945
  Number of Normal Interphase Cells: 977
Bovine fibroblast cells [2]; 0.5 μM or 1.0 μM 2-MeOE2 with shaking treatment, first to third time recovered cells, shaking only 26.1%
  percentage of the M phase cells: 28.8 to 81.2%
Bovine fibroblast cells [2]; [12]
  Number of Abnormal Cells (mean ± SD(%)): (11.4 ± 5.6^d) %
  Number of Metaphase Cells (mean ± SD(%)): (50.1 ± 8.6^d) %
  Number of Normal Interphase Cells (mean ± SD(%)): (38.5 ± 6.8^d) %
Bovine fibroblast cells [2]; [13]
  Number of Abnormal Cells: 232
  Number of Metaphase Cells: 1017
  Number of Normal Interphase Cells: 784
Bovine fibroblast cells [2]; [14]
  Number of Abnormal Cells (mean ± SD(%)): (3.1 ± 1.5^ef) %
  Number of Metaphase Cells (mean ± SD(%)): (77.7 ± 5.4^e) %
  Number of Normal Interphase Cells (mean ± SD(%)): (19.2 ± 5.0^ef) %
Bovine fibroblast cells [2]; [15]
  Number of Abnormal Cells: 63
  Number of Metaphase Cells: 1614
  Number of Normal Interphase Cells: 398
Bovine fibroblast cells [2]; [16]
  Number of Abnormal Cells (mean ± SD(%)): (3.2 ± 1.7^f) %
  Number of Metaphase Cells (mean ± SD(%)): (81.2 ± 5.0^f) %
  Number of Normal Interphase Cells (mean ± SD(%)): (15.6 ± 3.3^f) %
Bovine fibroblast cells [2]; [17]
  Number of Abnormal Cells: 68
  Number of Metaphase Cells: 1728
  Number of Normal Interphase Cells: 330

## COC(=O)Nc1nc2ccc(C(=O)c3cccs3)cc2[nH]1 [nocodazole]
cells
  cells in the metaphase obtained: 25 to 34%

Source: patent publication US20030044974A1, “Method for collecting cells in M phase or G1 phase and method for nuclear transplantation using the cells” (priority 2001, published 2003)
